# Laboratory results taken from US20110182982A1, “LIPOSOME TREATMENT OF VIRAL INFECTIONS” (University of Oxford, priority 2006, published 2011).
# Like-named read-outs stand apart in the source and are kept apart here.
# Assays:
# HIV-1 primary isolates = test: p24 secretion of HIV-1-infected PBMCs, eight primary isolates; format: cell-based
# Method: Clearance of HIV-1 primary isolates from infected human cells by NB-DNJ was assessed using phytohemagglutinin (PHA)-activated peripheral blood mononuclear cells (PBMCs) as indicator cells and the determination of p24 antigen production as the end point.
# PBMCs from four normal (uninfected) donors were isolated, pooled, and stimulated with PHA (5 μg/ml) for 48 h followed by PHA plus interleukin-2 (40 U/ml) for 72 h in RPMI 1640 medium containing 10% heat-inactivated fetal bovine serum (FBS), 100 U of penicillin per ml, 100 μg of streptomycin per ml, and 2 mM L-glutamine. All experiments were performed in 96-well microtiter plates. To infect cells, 100 μl of PHA-activated PBMCs (5×10^5/ml) was added to each well, after which an equal volume containing 100 50% tissue culture infective doses (TCID50) of primary isolate stock was added. After an overnight incubation, the cells were washed three times with tissue culture medium, and finally re-suspended in medium containing the appropriate liposome treatment or free NB-DNJ. On day 7, approximately 10-30% of the culture volume containing secreted HIV-1 virions was used to infect naïve PBMCs for a second round of infection and treatment (volume transferred was calculated to be the volume necessary for the untreated control of that isolate to infect naïve cells at a TCID50=100). Rounds of treatment and infection of naïve cells were continued over four weeks, and at every time point cellular supernatant containing secreted virions was isolated and used in capture ELISAs to determine p24 concentration (measure of secretion). Additionally, supernatant isolated at each time point throughout treatment was used to infect naïve PBMCs (TCID50=100) for two weeks with no further treatment, which allowed for the observation of a rebound in viral activity.
# PBMCs infected with 8 primary isolates (listed in Table 3) were incubated in the presence of free NB-DNJ (concentrations ranging 0-1 mM) or liposome-encapsulated NB-DNJ (0-3.75 μM, final lipid concentration of 50 μM).
# [1] = system: HIV envelope protein gp120; test: 2G12 and b12 binding to gp120 expressed in CHO cells, capture ELISA; format: cell-based
# Method: In the following example, the activity of NB-DNJ as measured by the inhibition of glycan processing on the HIV envelope protein, gp120, is determined following expression in CHO cells in the presence of free or DCPP liposome-encapsulated NB-DNJ.
# CHO cells expressing a soluble form of HIV gp120 were incubated in the presence of free NB-DNJ with concentrations ranging between 0-5 mM, or with liposomes encapsulating NB-DNJ with final concentrations in the medium ranging between 0 and 750 nM. Cells were left to incubate for 5 days before cellular supernatant containing the treated gp120 was collected. To measure the inhibition of glycan processing on gp120 expressed in the presence of NB-DNJ (either free or in liposomes), the binding of the MAb 2G12 was determined by capture ELISA. 2G12 recognizes a cluster of mannose residues on the carbohydrate-rich surface of gp120, and loss of binding in the presence of NB-DNJ results from the retention of glucose on the oligomannose glycans that form the epitope. A loss of binding affinity, however, may also arise from a misfolding of the protein, and to distinguish between these two possibilities, the affinity of all samples for the neutralizing MAb, b12, is also measured. […] Soluble gp120 located in the cellular supernatant was captured in ELISA plates using the D7324 antibody (binds the C5 region of gp120) and treated with 10 μg/ml of either 2G12 or b12. The binding of both antibodies to NB-DNJ-treated samples was related to that for the untreated gp120, where data are expressed as percent binding and represent the mean±S.D. of triplicates from four separate experiments.
# cp BVDV = test: Yield reduction (plaque) assay; format: cell-based, bovine viral diarrhea virus; details: for IC50: Bovine viral diarrhea virus isolates and strains, read-out: IC50, secretion of infectious BVDV
# Method: The antiviral effect of liposome-included NB-DNJ was also tested against the cp BVDV, using the yield reduction assay, a method which takes advantage of the cp strain being able to form plaques on monolayers of infected cells.
# FIG. 7 represents the effect of free vs. DC liposome-encapsulated NB-DNJ, on secretion of infectious cp BVDV. MDBK cells infected with cp BVDV were treated for 3 days with either free or DC liposome-NB-DNJ, so that the final NB-DNJ concentrations ranged between 0 and 500 μM and the total lipid concentration was 100 μM. The supernatants were then removed and used to infect fresh MDBK monolayers in six-well plates. After 3 days the plaques were counted under the microscope (plaque assay) and the results were expressed as a percentage of the number of plaques resulting from infection with no drug supernatant (=100%) (x axis). The y axis indicates the free or DC liposome-included NB-DNJ concentrations used in the plaque assay. The IC50 is indicated at the bottom of the graph.
# ncp BVDV = test: BVDV secretion from infected MDBK cells, real-time PCR; format: cell-based, bovine viral diarrhea virus; details: 750 nM, 3 days
# Method: In a first study using the ncp strain of BVDV, NB-DNJ was added freely to the culture medium, so that final concentrations ranged between 0 and 750 nM. In separate incubations, NB-DNJ DCPP liposomes were added so that the final lipid concentration was 50 μM and final concentrations of NB-DNJ ranged between 0 and 750 nM. Experiments were carried out in duplicate in 6-well plates. The quantity of secreted BVDV viral particles was measured following 3 days of incubation. Virus secretion analysis was performed by quantitative PCR (real-time PCR) on viral RNA extracted from 500 μl of supernatant. Real-time PCR used primers directed against the ncp BVDV RNA where the forward primer sequence was […] (SEQ ID NO:1), and the reverse primer sequence was […] (SEQ ID NO:2). Results are expressed as the percentage of RNA copies present in treated samples as compared to the untreated control (=100% on the x axis).
# [2] = Human immunodeficiency virus 1, PBMC, free, three rounds of treatment, six isolates
# [3] = 7.5 nM, liposome-mediated delivery
smiles,measurement,setting,value
"CCCCN1C[C@H](O)[C@@H](O)[C@H](O)[C@H]1CO [NB-DNJ, N-butyl-1,5-dideoxy-1,5-imino-D-glucitol]",reduction in viral secretion,"HIV-1 primary isolates; 1 mM free in medium, first week, most isolates",30-40%
same,"enhancement of antiviral activity, liposome vs free",HIV-1 primary isolates; DOPE:CHEMS:PEG-PE liposomes,10^4-10^5 fold
same,IC50,HIV-1 primary isolates; [2],400 µM
same,IC90,HIV-1 primary isolates; [2],500 µM
same,final NB-DNJ concentration with antiviral activity similar to 500 μM free,"HIV-1 primary isolates; encapsulated in DOPE:CHEMS:PEG-PE liposomes, all isolates",3.75 to 37.5 nM
same,reduction in viral activity,"HIV-1 primary isolates; free, all isolates",≥ 90%
same,antiviral concentration (lowest to clear viral activity in all isolates),"HIV-1 primary isolates; free, four weeks treatment",500 µM
same,gp120 binding to 2G12,[1]; [3],9.8±4.8%
same,gp120 binding to b12,[1]; [3],96.3±3.2%
same,gp120 binding to 2G12,[1]; 0.5-mM free in the medium,1.2±0.1%
same,gp120 binding to b12,[1]; 0.5-mM free in the medium,100%
same,"better inhibition, DC liposomes vs free",cp BVDV,8 fold
same,IC50,cp BVDV; free drug,175 µM
same,IC50,"cp BVDV; included in DC liposomes, total lipid 100 μM",20 µM
same,decrease in number of secreted viral particles,ncp BVDV; DCPP liposome-mediated delivery,2 fold
same,effect on number of secreted viral particles,ncp BVDV; free delivery,no effect
